Measurements: patent publication US9066948B2, “Oxadiazolo[3,2-a]pyrimidines and thiadiazolo[3,2-a]pyrimidines” (THE UNITED STATES OF AMERICA AS REPRESENTED BY THE …, priority 2010, dated 2015)
“And” between values parts separate entries of the source, which are not always exact repeats. Equal values may be shown once.

Tests used:
platelets = experiment: Platelet adhesion assay: calcein-labeled platelets on fibrinogen-coated wells; format: cell-based; details: Homo sapiens, mean±SD
Description: Thirty microliters of human fibrinogen (50 μg/mL) in Tris/saline (100 mM NaCl, 50 mM Tris/HCl, pH 7.4; American Diagnostica, Stamford, Conn.) are added to black, clear-bottom, untreated polystyrene, nonsterile 384-well microtiter plate wells (Corning no. 3711; Acton, Mass.). […] An additional wash is performed using HBMT with 1 mM MgCl2 and 2 mM CaCl2. Calcein-labeled platelets (final concentration 1×10^11/L) are treated with selected Compounds of the Invention (final concentration of 100 μM, 30 μM, 10 μM or 1 μM) at 22° C. for 20 minutes. Thirty microliters of platelets are then added to the wells. After 1 hour of adhesion, wells are washed 3 times with HBMT-1 mM MgCl2/2 mM CaCl2 and the plates are read by a fluorescent microtiter plate reader (Envision; Perkin Elmer) to detect calcein fluorescence (490 nm excitation and 515 nm emission). Negative controls consist of wells containing platelets without compounds of the invention.

WT mouse platelets = experiment: ADP-induced platelet aggregation, mouse PRP (Example 45); format: cell-based
Description: Blood may be drawn via cardiac puncture from anesthetized Sprague Dawley rats (Taconic, Hudson, N.Y.), WT C57B1/6 mice (Jackson Laboratories, Bar Harbor, Me.), and mice expressing hαIIb/mβ3 and diluted 1:1 with a mixture of 4 parts 0.165 […], pH 7.4 containing 2 mM CaCl2 and 1 mM MgCl2. Blood from consenting human volunteers is obtained from a peripheral vein using a 19 gauge needle and anticoagulated with 1:10 vol 3.8% sodium citrate. Platelet-rich plasma (PRP) may be isolated by centrifugation at 22° C. at 350 g for 10 minutes (rats); 250 g for 2.5 minutes (mice); or 650 g for 4 minutes (human). Mouse PRP samples may be adjusted to 400,000 platelets/μl with the buffer used for dilution and human PRP may be adjusted to 300,000 platelets/μl with platelet-poor plasma. […] Platelet aggregation may be induced by adding to PRP adenosine diphosphate (ADP) at 30 μM (rats and WT mice), 20 or 30 μM (hαIIb/mβ3 mice), or 5 μM (humans), and light transmission may be measured over time in an aggregometer (Kowa AG-10E, Tokyo, Japan) with stirring. Percent inhibition may be calculated by comparing the initial slope of untreated samples to the samples treated with the Compounds of the Invention.

washed platelets = experiment: Effect of Mg2+ on washed platelet aggregation induced by thrombin receptor activating peptide (SFLLRN); format: cell-based, human; details: compound at 1 μM; SFLLRN 10 μM
Description: Washed platelets are resuspended in buffer containing fibrinogen (200 μg/ml) and 1 mM […] in combination with either 1 mM or 20 mM Mg^2+. Aggregation is induced by adding a thrombin receptor activating peptide (SFLLRN) at 10 μM.

[1] = target: T1, HEK293 cells stably expressing normal human αVβ3 (Homo sapiens, UniProt P05106+P06756); experiment: αVβ3-mediated cell adhesion to vitronectin; format: cell-based
T1 construct: expressed in transfected cells; host or cells: HEK293
T1 sequence (P06756 31-889 limits assumed): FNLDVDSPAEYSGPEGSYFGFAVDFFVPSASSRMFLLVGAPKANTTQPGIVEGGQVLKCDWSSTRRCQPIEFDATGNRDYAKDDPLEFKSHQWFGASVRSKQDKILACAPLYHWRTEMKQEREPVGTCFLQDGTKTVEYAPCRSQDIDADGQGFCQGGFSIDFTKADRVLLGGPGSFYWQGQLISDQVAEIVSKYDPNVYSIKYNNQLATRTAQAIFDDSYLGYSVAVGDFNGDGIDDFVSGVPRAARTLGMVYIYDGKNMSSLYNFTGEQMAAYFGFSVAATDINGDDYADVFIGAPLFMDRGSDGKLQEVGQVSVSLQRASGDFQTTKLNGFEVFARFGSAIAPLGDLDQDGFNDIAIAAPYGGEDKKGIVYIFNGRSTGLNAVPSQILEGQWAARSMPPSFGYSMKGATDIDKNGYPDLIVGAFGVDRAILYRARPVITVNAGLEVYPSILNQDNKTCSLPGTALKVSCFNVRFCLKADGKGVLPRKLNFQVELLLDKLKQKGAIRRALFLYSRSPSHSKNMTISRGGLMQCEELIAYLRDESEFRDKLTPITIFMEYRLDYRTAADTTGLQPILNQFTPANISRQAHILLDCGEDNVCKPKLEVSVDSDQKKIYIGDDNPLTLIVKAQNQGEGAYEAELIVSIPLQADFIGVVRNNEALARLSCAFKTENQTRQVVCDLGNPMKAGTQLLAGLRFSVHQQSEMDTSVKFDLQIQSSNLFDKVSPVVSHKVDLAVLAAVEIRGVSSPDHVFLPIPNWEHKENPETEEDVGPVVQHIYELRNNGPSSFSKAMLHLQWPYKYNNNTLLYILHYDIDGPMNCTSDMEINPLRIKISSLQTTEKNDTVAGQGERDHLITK
T1 sequence (P06756 891-1048 partner limits assumed): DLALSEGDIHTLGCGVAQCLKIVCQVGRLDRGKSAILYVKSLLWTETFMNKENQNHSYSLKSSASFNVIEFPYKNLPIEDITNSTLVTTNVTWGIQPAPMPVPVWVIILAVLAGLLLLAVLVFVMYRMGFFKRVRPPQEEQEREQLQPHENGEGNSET
T1 sequence (P05106 27-788): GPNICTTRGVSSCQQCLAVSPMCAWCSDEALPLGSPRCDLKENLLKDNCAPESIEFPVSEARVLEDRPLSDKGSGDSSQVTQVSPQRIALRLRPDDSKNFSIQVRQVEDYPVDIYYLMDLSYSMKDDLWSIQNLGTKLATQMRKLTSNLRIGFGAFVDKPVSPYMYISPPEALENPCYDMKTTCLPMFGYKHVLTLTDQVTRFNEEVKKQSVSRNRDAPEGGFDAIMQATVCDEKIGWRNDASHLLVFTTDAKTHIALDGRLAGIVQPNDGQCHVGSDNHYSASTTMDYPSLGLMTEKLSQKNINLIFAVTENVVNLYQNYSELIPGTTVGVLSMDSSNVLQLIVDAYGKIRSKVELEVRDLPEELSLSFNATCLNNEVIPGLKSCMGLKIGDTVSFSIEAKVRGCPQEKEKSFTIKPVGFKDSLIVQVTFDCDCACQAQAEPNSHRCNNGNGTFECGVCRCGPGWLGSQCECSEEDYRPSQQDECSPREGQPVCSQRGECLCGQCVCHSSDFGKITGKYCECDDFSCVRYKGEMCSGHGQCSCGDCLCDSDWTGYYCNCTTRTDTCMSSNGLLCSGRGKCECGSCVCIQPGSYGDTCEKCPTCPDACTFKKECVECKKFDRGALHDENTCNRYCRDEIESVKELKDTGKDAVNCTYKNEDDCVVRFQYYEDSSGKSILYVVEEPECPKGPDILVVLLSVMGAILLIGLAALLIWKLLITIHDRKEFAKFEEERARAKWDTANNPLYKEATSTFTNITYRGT
Description: Washed platelets are prepared as per the primary screening assay, suspended in HBMT containing 1 mM MgCl2 (platelet adhesion to collagen) or 2 mM CaCl2/1 mM MgCl2 (platelet adhesion to fibrinogen) and adjusted to a count of 250×10^9/L. HEK293 cells stably expressing normal human αVβ3 or normal human αIIbβ3 are suspended in HBMT containing either 1 mM MgCl2 (HEK293 cells expressing αVβ3 for adhesion to vitronectin) or 2 mM CaCl2/1 mM MgCl2 (HEK293 cells expressing αIIbβ3 for adhesion to fibrinogen); the cell counts are adjusted to 10^6/mL. Polystyrene 96-well microtiter plates (Nunc) are coated with either fibrinogen (50 μg/mL), vitronectin (5 μg/mL), or collagen (33 μg/mL, rat tail type 1; Becton Dickinson) for 1 hour, and blocked with HBMT for at least 1 hour. Platelets and cells are treated with the compound of Example 27 of the current invention or 2-ethyl-7-(piperazin-1-yl)-5H-[1,3,4]thiadiazolo-[3,2-a]pyrimidin-5-one of U.S. Ser. No. 12/514,286 in the presence or absence of anti-α2β1 mAb 6F1, anti-αIIbβ3 mAb 10E5, anti-αIIbβ3 mAb 10E5+αVβ3 mAb 7E3, αVβ3-specific mAb LM609, or anti-αVβ3+αIIbβ3 mAb 7E3, for 15 minutes at 37° C. before being added to the microtiter wells. After adhering for 1 hour at either 22° C. (platelets) or 37° C. (cells), nonadherent platelets or cells are removed by washing 3 times with HBMT containing the same ion composition as the buffer used for adhesion. […] In other experiments, 8-chambered glass coverslips (Nunc) are coated with collagen (33 μg/mL) for 1 hour at 22° C. Washed platelets are allowed to adhere for 1 hour at 22° C. and the coverslips are stained with the Alexa-488-conjugated β3-specific mAb 7H2. Adherent platelets are imaged using a Zeiss LSM-510 confocal system with Axiovert 200 microscope (Carl Zeiss, Heidelberg, Germany) using a Plan-Apochromat 100/1.4 NA oil DIC objective.

αIIbβ3 = target: T2, αIIbβ3 (Homo sapiens, UniProt P05106+P08514); experiment: Induction of ligand-induced binding site (LIBS) epitopes, flow cytometry of washed platelets; format: cell-based; details: eptifibatide 10 μM = 100%, Example 27 at 100 μM
T2 construct: Washed platelets are prepared in HBMT containing 2 mM CaCl2/1 mM MgCl2; endogenous in cells; host or cells: washed platelets
T2 sequence (P08514 32-887 limits assumed): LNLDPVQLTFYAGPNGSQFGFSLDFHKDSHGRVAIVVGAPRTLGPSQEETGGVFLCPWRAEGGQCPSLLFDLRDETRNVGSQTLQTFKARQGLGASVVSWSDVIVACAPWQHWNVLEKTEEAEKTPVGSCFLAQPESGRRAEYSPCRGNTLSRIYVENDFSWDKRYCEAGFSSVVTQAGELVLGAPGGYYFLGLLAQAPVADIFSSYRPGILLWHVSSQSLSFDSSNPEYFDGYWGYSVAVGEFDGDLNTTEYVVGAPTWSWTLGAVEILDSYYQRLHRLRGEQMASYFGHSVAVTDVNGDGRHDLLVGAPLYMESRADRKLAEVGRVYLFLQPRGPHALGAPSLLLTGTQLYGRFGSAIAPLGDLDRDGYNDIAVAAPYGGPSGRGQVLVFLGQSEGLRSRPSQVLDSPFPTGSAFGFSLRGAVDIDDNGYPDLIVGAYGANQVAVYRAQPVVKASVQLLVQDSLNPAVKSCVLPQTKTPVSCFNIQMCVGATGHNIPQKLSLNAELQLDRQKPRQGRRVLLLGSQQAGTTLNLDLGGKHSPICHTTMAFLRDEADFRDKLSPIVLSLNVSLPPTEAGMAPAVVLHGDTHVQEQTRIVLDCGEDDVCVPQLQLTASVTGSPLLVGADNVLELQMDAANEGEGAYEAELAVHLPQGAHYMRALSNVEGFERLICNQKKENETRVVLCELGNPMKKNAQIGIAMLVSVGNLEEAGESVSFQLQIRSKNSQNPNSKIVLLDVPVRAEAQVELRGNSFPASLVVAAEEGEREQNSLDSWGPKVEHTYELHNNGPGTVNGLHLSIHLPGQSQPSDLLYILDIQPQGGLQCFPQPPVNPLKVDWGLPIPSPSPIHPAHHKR
T2 sequence (P08514 891-1039 partner limits assumed): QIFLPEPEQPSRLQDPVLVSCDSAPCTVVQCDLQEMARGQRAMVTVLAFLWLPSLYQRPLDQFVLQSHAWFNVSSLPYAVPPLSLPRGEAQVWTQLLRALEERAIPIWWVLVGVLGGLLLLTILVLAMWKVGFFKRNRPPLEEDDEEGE
T2 sequence (P05106 27-788): as the sequence (P05106 27-788) above
Description: Washed platelets are prepared in HBMT containing 2 mM CaCl2/1 mM MgCl2. […] Fluorescently labeled monoclonal antibodies (PMI-1, LIBS-1, AP5, or 10E5; Alexa-488 conjugated; Invitrogen) are then added (20 μL, final concentration: 5 μg/mL) and incubated for 30 minutes at 22° C. in the dark, after which samples are diluted 1:10 in HBMT with CaCl2/MgCl2 for analysis by flow cytometry (FACSCalibur; Becton Dickinson, Franklin Lakes, N.J.). Antibody binding is reported as the geometric mean fluorescence intensity; nonspecific binding is determined by adding a 50-fold excess of unlabeled antibody before adding the labeled antibody. The net normalized fluorescence intensity in the presence of eptifibatide (10 μM, 30 min incubation at 22° C.) is assigned the value of 100%

NCC(=O)Nc1cccc(-c2nn3c(=O)cc(N4CCNCC4)nc3s2)c1 [Example 27, 2-amino-N-(3-(5-oxo-7-(piperazin-1-yl)-5H-[1,3,4]thiadiazolo[3,2-a]pyrimidin-2-yl)phenyl)acetamide]
inhibition at 10 µM (platelets; 10 μM): 66 ± 10%
inhibition at 30 µM (platelets; 30 μM, 5 separate experiments): 80 ± 13%
inhibition at 100 µM (platelets; 100 μM, 5 separate experiments): 83 ± 7%
selectivity for human compared to mouse or rat αIIbβ3 (WT mouse platelets): selective for human WIND compared to mouse or rat αIIbβ3
inhibition of mouse platelet aggregation induced by ADP (WT mouse platelets; 1 μM): does not inhibit either mouse or rat platelet aggregation
effect of Mg2+ on the inhibition of SFLLRN-induced platelet aggregation (washed platelets): clearly attenuated at 20 mM Mg^2+
selectivity for αIIbβ3 compared to αVβ3 [1]: selective for αIIbβ3 compared to αVβ3
AP5 binding, % of the amount in the presence of eptifibatide (αIIbβ3): 18±5% and 18%
LIBS1 binding after 30 min, % of the amount in the presence of eptifibatide (αIIbβ3): 21±3%
PMI-1 binding, % of the amount bound by platelets treated with eptifibatide (αIIbβ3): 82±13%
